The results in this text go back to patent publication US8017612B2, “Piperazine compound and use thereof as a HCV polymerase inhibitor” (priority 2006, dated 2011).

pIC50: −log10 of the molar value. Where a name gives a salt, the structure may show the parent alone.

Assay [1] addresses T1, HCV polymerase (NS5B) type 1b (Hepatitis C virus genotype 1b, UniProt P26663).
T1 construct: a region encoding NS5B (J Virol 1991 March, 65(3), 1105-13, 544 amino acids after deletion of 47 amino acids on the C-terminal); 6xHis (C); made in house; host or cells: Escherichia coli
Briefly: Assay of enzyme (HCV polymerase) inhibitory activity, type 1b enzyme. The class given is biochemical, HCV BK strain (type 1b). Summed up:
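IC50 derived from [3H]UTP incorporation into TCA-insoluble RNA, compared with and without test compound. Reaction (25 °C, 60 min, Tris pH 7.5, 5 mM MgCl2): E. coli-expressed 1b NS5B Δ47 with His tag at 0.5 μg/ml, 5 μg/ml run-off substrate RNA, ATP/GTP/CTP 50 μM, UTP 2 μM.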

The target of assay [2] is T2, HCV polymerase (NS5B) type 1a (Hepatitis C virus genotype 1a, UniProt P26664).
T2 construct: made in house; host or cells: Escherichia coli (by the 'similar method' of the 1b enzyme)
Briefly: Assay of enzyme (HCV polymerase) inhibitory activity, type 1a enzyme. Format: biochemical, HCV type 1a (cloned from the blood of patients). Summed up:
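Reactions ran 60 min at 25° C in 20 mM Tris-HCl pH 7.5, 5 mM MgCl2, 50 mM NaCl, holding genotype 1a NS5B (1.5 μg/ml, Δ47 C-terminus, 6His), substrate RNA 5 μg/ml, UTP 2 μM with tritiated UTP and other NTPs 50 μM. IC50 derived from incorporated radiolabel in filter-trapped RNA relative to uninhibited reaction.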

The mark [3] stands for this setting: HCV polymerase inhibitory activity (IC50), 1b, type 1b enzyme 0.5 μg/ml, 25° C., 60 min.
The mark [4] stands for this setting: HCV polymerase inhibitory activity (IC50), 1a, type 1a enzyme 1.5 μg/ml, 25° C., 60 min.
Where [5] appears, read: HCV polymerase inhibitory activity IC50, 1b, type 1b enzyme.
Setting [6] is: HCV polymerase inhibitory activity IC50, 1a, type 1a enzyme.

One may read the pIC50 as the negative decadic logarithm of the IC50, by convention in mol/L. A higher pIC50 goes with a low IC50. Regarding `CC(C)c1ccc(CNC(=O)[C@H]2CN(C(=O)Cn3cnnc3)CCN2S(=O)(=O)c2ccc(C(F)(F)F)cc2)cc1` [Example 230, (R)-4-(2-[1,2,4]triazol-4-yl-acetyl)-1-(4-trifluoromethyl-benzenesulfonyl)-piperazine-2-carboxylic acid 4-isopropyl-benzylamide], the pIC50 in assay [1] (setting [3]) and in assay [2] (setting [4]) was greater than 7.00 throughout.

Consider `Cc1cc(C(C)C)ccc1CNC(=O)[C@H]1CN(c2nc(C)c(C(=O)O)s2)CCN1S(=O)(=O)c1ccc(C(F)(F)F)cc1` [Example 335, 2-[(R)-3-(4-isopropyl-2-methyl-benzylcarbamoyl)-4-(4-trifluoromethyl-benzenesulfonyl)-piperazin-1-yl]-4-methyl-thiazole-5-carboxylic acid], for which the pIC50 in assay [1] (setting [3]) and in assay [2] (setting [4]) was greater than 7.00 throughout.

Regarding `CC(=O)N1CCN(S(=O)(=O)c2ccc(C(C)C)cc2)C(C(=O)NCc2cccc(N(C)C)c2)C1` (stereo not shown) [Example 128, 4-acetyl-1-(4-isopropyl-benzenesulfonyl)-piperazine-2-carboxylic acid 3-dimethylamino-benzylamide], the pIC50 in assay [1] (setting [3]) and in assay [2] (setting [4]) was less than 6.00 in each case.

As to `CC(=O)N1CCN(S(=O)(=O)c2ccc(C(C)C)cc2)[C@@H](C(=O)NCCc2c[nH]cn2)C1` [Example 433, (R)-4-acetyl-1-(4-isopropyl-benzenesulfonyl)-piperazine-2-carboxylic acid [2-(1H-imidazol-4-yl)-ethyl]-amide hydrochloride], the pIC50 in assay [1] (setting [3]) and in assay [2] (setting [4]) was less than 6.00 in each case.

Take `CC(=O)N1CCN(S(=O)(=O)c2ccc(C(C)C)cc2)[C@@H](C(=O)NCc2ccc(C(C)C)cc2Cl)C1` [Example 183, (R)-4-acetyl-1-(4-isopropyl-benzenesulfonyl)-piperazine-2-carboxylic acid 2-chloro-4-isopropyl-benzylamide]: the pIC50 in assay [1] (setting [3]) and in assay [2] (setting [4]) was 6.00 to 7.00 in each case.

For `CC(=O)N1CCN(S(=O)(=O)c2ccc(OC(F)(F)F)cc2)[C@@H](C(=O)NCC2(O)CCCCC2)C1` [Example 621, (R)-4-acetyl-1-(4-trifluoromethoxy-benzenesulfonyl)-piperazine-2-carboxylic acid (1-hydroxy-cyclohexylmethyl)-amide], the pIC50 in assay [1] (setting [3]) and in assay [2] (setting [4]) was less than 6.00 throughout.

For `CCN(C)c1ccc(CNC(=O)[C@H]2CN(c3nc4nc(Cl)ncc4s3)CCN2S(=O)(=O)c2ccc(OC(F)(F)F)cc2)cc1` [Example 958, (R)-4-(5-chloro-thiazolo[4,5-d]pyrimidin-2-yl)-1-(4-trifluoromethoxy-benzenesulfonyl)-piperazine-2-carboxylic acid 4-(ethyl-methyl-amino)-benzylamide], the pIC50 in assay [1] (setting [5]) and in assay [2] (setting [6]) was greater than 7.00 in each case.

For the molecule `CCCc1ccc(CNC(=O)[C@H]2CN(c3cnc4cncc(C(=O)O)c4n3)CCN2S(=O)(=O)c2ccc([N+](=O)[O-])cc2)cc1` [Example 843, 2-[(R)-4-(4-nitro-benzenesulfonyl)-3-(4-propyl-benzylcarbamoyl)-piperazin-1-yl]-pyrido[3,4-b]pyrazine-8-carboxylic acid], the pIC50 in assay [1] (setting [5]) and in assay [2] (setting [6]) was greater than 7.00 throughout.

Turning to `Cc1nc(C(N)=O)c2sc(N3CCN(S(=O)(=O)c4ccc(OC(F)(F)F)cc4)[C@@H](C(=O)NCc4ccc(OC(F)(F)F)cc4)C3)nc2n1` [Example 1029, 5-methyl-2-[(R)-4-(4-trifluoromethoxy-benzenesulfonyl)-3-(4-trifluoromethoxy-benzylcarbamoyl)-piperazin-1-yl]-thiazolo[4,5-d]pyrimidine-7-carboxylic acid amide], the pIC50 in assay [1] (setting [5]) was greater than 7.00; in assay [2] (setting [6]), 6.00 to 7.00.

Turning to `O=C(NCc1ccc(OC(F)(F)F)cc1)[C@H]1CN(c2nc3nc(Cl)ncc3s2)CCN1S(=O)(=O)c1ccc(OC(F)(F)C(F)F)cc1` [Example 959, (R)-4-(5-chloro-thiazolo[4,5-d]pyrimidin-2-yl)-1-[4-(1,1,2,2-tetrafluoro-ethoxy)-benzenesulfonyl]-piperazine-2-carboxylic acid 4-trifluoromethoxy-benzylamide], the pIC50 in assay [1] (setting [5]) and in assay [2] (setting [6]) was greater than 7.00 each time.

Consider `CCC(F)(F)c1ccc(CNC(=O)[C@H]2CN(C(=O)CNc3ccn(C)n3)CCN2S(=O)(=O)c2ccc(OC(F)(F)F)cc2)cc1` [Example 734, (R)-4-[2-(1-methyl-1H-pyrazol-3-ylamino)-acetyl]-1-(4-trifluoromethoxy-benzenesulfonyl)-piperazine-2-carboxylic acid 4-(1,1-difluoro-propyl)-benzylamide], for which the pIC50 in assay [1] (setting [5]) and in assay [2] (setting [6]) was 6.00 to 7.00 throughout.

Regarding `O=C(NCc1ccc(OC(F)(F)F)cc1)[C@H]1CN(c2nc3nc(OC(F)F)ncc3s2)CCN1S(=O)(=O)c1ccc(OC(F)(F)F)cc1` [Example 1087, (R)-4-(5-difluoromethoxy-thiazolo[4,5-d]pyrimidin-2-yl)-1-(4-trifluoromethoxy-benzenesulfonyl)-piperazine-2-carboxylic acid 4-trifluoromethoxy-benzylamide], the pIC50 in assay [1] (setting [5]) and in assay [2] (setting [6]) was greater than 7.00 throughout.

As for `O=C(NCc1ccc(OC(F)(F)F)cc1)[C@H]1CN(c2nc3nc(C4CCC4)ncc3s2)CCN1S(=O)(=O)c1ccc(OC(F)(F)F)cc1` [Example 1069, (R)-4-(5-cyclobutyl-thiazolo[4,5-d]pyrimidin-2-yl)-1-(4-trifluoromethoxy-benzenesulfonyl)-piperazine-2-carboxylic acid 4-trifluoromethoxy-benzylamide], the pIC50 in assay [1] (setting [5]) and in assay [2] (setting [6]) was greater than 7.00 throughout.

As for `CCCOc1ccc(S(=O)(=O)N2CCN(C(C)=O)C[C@@H]2C(=O)NCc2ccc(C(C)C)cc2)cc1` [Example 193, (R)-4-acetyl-1-(4-propoxy-benzenesulfonyl)-piperazine-2-carboxylic acid 4-isopropyl-benzylamide], the pIC50 in assay [1] (setting [3]) and in assay [2] (setting [4]) was 6.00 to 7.00 each time.

As for `CCOc1ccc(CNC(=O)[C@H]2CN(c3nc(C)c(C(=O)O)s3)CCN2S(=O)(=O)c2ccc(OC(F)(F)F)cc2)cc1` [Example 442, 2-[(R)-3-(4-ethoxy-benzylcarbamoyl)-4-(4-trifluoromethoxy-benzenesulfonyl)-piperazin-1-yl]-4-methyl-thiazole-5-carboxylic acid], the pIC50 in assay [1] (setting [3]) was greater than 7.00; in assay [2] (setting [4]) it was 6.00 to 7.00.

With `CCCc1ccc(CNC(=O)[C@H]2CN(C(=O)Nc3nc(CC(=O)N4CCOCC4)cs3)CCN2S(=O)(=O)c2ccc(OC(F)(F)F)cc2)cc1` [Example 475, (R)-4-(4-trifluoromethoxy-benzenesulfonyl)-piperazine-1,3-dicarboxylic acid 1-{[4-(2-morpholin-4-yl-2-oxo-ethyl)-thiazol-2-yl]-amide} 3-(4-propyl-benzylamide)], the pIC50 is greater than 7.00 in assay [1] (setting [3]) and 6.00 to 7.00 in assay [2] (setting [4]).

For the molecule `CCCc1ccc(CNC(=O)[C@H]2CN(c3nc(C)c(CN4CCCC4)s3)CCN2S(=O)(=O)c2ccc(OC(F)(F)F)cc2)cc1` [Example 531, (R)-4-(4-methyl-5-pyrrolidin-1-ylmethyl-thiazol-2-yl)-1-(4-trifluoromethoxy-benzenesulfonyl)-piperazine-2-carboxylic acid 4-propyl-benzylamide], the pIC50 in assay [1] (setting [3]) and in assay [2] (setting [4]) was greater than 7.00 in each case.
